Results as given in ChEMBL document CHEMBL4507283, “Data for DCP probe BI-1935” (2021).

Legend:
[1] = target: Receptor tyrosine-protein kinase erbB-2 (Homo sapiens) (UniProt P04626); details: Compound concentration 1000.0 nM
[2] = target: Voltage-dependent N-type calcium channel subunit alpha-1B (Rattus norvegicus) (UniProt Q02294); assay: CA+/N/RA Eurofins-Panlabs selectivity data (BI); details: Compound concentration 10.0 uM
[3] = target: Cyclin-G-associated kinase (Homo sapiens) (UniProt O14976); details: Compound concentration 1000.0 nM
[4] = target: Dual specificity protein kinase CLK2 (Homo sapiens) (UniProt P49760); details: Compound concentration 1000.0 nM
[5] = system: Proto-oncogene tyrosine-protein kinase receptor Ret (Homo sapiens), P07949 [V804M]; details: Compound concentration 1000.0 nM
Renin (Homo sapiens) = Renin (Homo sapiens) (UniProt P00797); assay: RENIN (HU) Eurofins-Panlabs selectivity data (BI); details: Compound concentration 10.0 uM
[6] = target: B2 bradykinin receptor (Homo sapiens) (UniProt P30411); assay: B2/HU Eurofins-Panlabs selectivity data (BI); details: Compound concentration 10.0 uM
[7] = target: SRSF protein kinase 2 (Homo sapiens) (UniProt P78362); details: Compound concentration 1000.0 nM
[8] = target: MAP/microtubule affinity-regulating kinase 4 (Homo sapiens) (UniProt Q96L34); details: Compound concentration 1000.0 nM
[9] = target: cAMP-dependent protein kinase catalytic subunit alpha (Homo sapiens) (UniProt P17612); details: Compound concentration 1000.0 nM
[10] = target: Neprilysin (Homo sapiens) (UniProt P08473); assay: NEUTRALENDOP Eurofins-Panlabs selectivity data (BI); details: Compound concentration 10.0 uM
[11] = target: Serine/threonine-protein kinase 32A (Homo sapiens) (UniProt Q8WU08); details: Compound concentration 1000.0 nM
[12] = target: Serine/threonine-protein kinase PknB (Mycobacterium tuberculosis) (UniProt P9WI81); details: Compound concentration 1000.0 nM
[13] = target: Receptor tyrosine-protein kinase erbB-3 (Homo sapiens) (UniProt P21860); details: Compound concentration 1000.0 nM
[14] = target: Serine/threonine-protein kinase Chk1 (Homo sapiens) (UniProt O14757); details: Compound concentration 1000.0 nM
[15] = target: Serine/threonine-protein kinase SIK1 (Homo sapiens) (UniProt P57059); details: Compound concentration 1000.0 nM
[16] = target: Casein kinase II subunit alpha (Homo sapiens) (UniProt P68400); details: Compound concentration 1000.0 nM
[17] = target: Mitogen-activated protein kinase kinase kinase 20 (Homo sapiens) (UniProt Q9NYL2); details: Compound concentration 1000.0 nM
[18] = target: Phosphorylase b kinase gamma catalytic chain, skeletal muscle/heart isoform (Homo sapiens) (UniProt Q16816); details: Compound concentration 1000.0 nM
[19] = target: Casein kinase I isoform gamma-1 (Homo sapiens) (UniProt Q9HCP0); details: Compound concentration 1000.0 nM
[20] = target: Sodium-dependent dopamine transporter (Homo sapiens, UniProt Q01959); assay: GPCRScan assay: inhibition of DAT; parameters: radioligand conc. used [nm] 3.6 – 16.0, parental cells stable HEK
[21] = target: Phosphatidylinositol 5-phosphate 4-kinase type-2 gamma (Homo sapiens) (UniProt Q8TBX8); details: Compound concentration 1000.0 nM
[22] = target: Serine/threonine-protein kinase MRCK beta (Homo sapiens) (UniProt Q9Y5S2); details: Compound concentration 1000.0 nM
[23] = target: Histamine H1 receptor (Homo sapiens) (UniProt P35367); assay: H1/H Eurofins-Panlabs selectivity data (BI); details: Compound concentration 10.0 uM
[24] = target: Casein kinase I isoform gamma-3 (Homo sapiens) (UniProt Q9Y6M4); details: Compound concentration 1000.0 nM
[25] = system: Mast/stem cell growth factor receptor Kit (Homo sapiens), P10721 [L576P]; details: Compound concentration 1000.0 nM
[26] = target: Mitogen-activated protein kinase 14 (Homo sapiens) (UniProt Q16539); details: Compound concentration 1000.0 nM
[27] = target: D(2) dopamine receptor (Homo sapiens) (UniProt P14416); details: Compound concentration 10.0 uM
[28] = target: T1, Polyunsaturated fatty acid 5-lipoxygenase (Homo sapiens) (UniProt P09917); assay: 5LO Eurofins-Panlabs selectivity data (BI)
T1 sequence (whole entry): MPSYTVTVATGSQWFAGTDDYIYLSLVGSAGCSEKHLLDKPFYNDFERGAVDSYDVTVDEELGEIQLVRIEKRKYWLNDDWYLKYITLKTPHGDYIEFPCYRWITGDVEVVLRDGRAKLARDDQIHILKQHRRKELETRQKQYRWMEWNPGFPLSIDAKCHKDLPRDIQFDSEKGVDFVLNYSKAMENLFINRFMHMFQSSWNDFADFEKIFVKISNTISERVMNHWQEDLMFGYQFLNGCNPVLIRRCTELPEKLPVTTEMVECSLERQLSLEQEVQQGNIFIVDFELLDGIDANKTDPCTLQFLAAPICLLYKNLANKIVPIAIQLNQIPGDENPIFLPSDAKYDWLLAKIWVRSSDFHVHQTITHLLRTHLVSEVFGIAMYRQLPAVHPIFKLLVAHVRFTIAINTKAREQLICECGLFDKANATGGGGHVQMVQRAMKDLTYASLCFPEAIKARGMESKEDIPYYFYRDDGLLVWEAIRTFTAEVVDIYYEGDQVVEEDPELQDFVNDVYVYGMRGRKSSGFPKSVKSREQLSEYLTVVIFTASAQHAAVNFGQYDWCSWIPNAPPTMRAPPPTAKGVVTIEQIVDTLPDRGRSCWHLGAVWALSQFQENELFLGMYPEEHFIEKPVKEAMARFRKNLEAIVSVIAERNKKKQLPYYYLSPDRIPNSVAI

[29] = system: Tyrosine-protein kinase ABL1 (Homo sapiens), P00519 [E255K]; details: Compound concentration 1000.0 nM
[30] = target: Non-receptor tyrosine-protein kinase TYK2 (Homo sapiens) (UniProt P29597); details: Compound concentration 1000.0 nM
[31] = target: Leukotriene C4 synthase (Cavia porcellus) (UniProt A6XA80); assay: LTC4SYN Eurofins-Panlabs selectivity data (BI); details: Compound concentration 10.0 uM
[32] = target: NUAK family SNF1-like kinase 2 (Homo sapiens) (UniProt Q9H093); details: Compound concentration 1000.0 nM
[33] = target: Small conductance calcium-activated potassium channel protein 1 (Rattus norvegicus) (UniProt P70606); assay: K+/SKCA Eurofins-Panlabs selectivity data (BI); details: Compound concentration 10.0 uM
[34] = target: Serine/threonine-protein kinase MARK2 (Homo sapiens) (UniProt Q7KZI7); details: Compound concentration 1000.0 nM

Sequence of Sodium-dependent dopamine transporter (Q01959 whole entry): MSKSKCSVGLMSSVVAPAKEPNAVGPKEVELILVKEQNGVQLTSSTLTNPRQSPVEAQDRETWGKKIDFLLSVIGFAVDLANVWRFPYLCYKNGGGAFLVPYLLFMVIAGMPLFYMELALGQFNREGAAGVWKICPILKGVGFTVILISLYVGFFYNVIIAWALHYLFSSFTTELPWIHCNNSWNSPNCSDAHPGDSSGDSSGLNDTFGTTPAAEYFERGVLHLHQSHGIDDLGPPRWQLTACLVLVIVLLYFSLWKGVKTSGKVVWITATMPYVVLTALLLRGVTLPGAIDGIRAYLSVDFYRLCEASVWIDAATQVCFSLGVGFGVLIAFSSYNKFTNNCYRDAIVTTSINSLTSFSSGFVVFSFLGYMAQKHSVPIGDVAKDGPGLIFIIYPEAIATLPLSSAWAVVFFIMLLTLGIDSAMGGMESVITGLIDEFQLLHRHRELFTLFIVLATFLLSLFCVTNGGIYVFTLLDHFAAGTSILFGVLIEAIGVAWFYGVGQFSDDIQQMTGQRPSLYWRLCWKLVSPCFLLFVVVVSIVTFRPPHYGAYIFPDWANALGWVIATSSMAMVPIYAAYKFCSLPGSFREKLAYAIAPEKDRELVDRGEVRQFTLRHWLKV
Sequence of Phosphatidylinositol 5-phosphate 4-kinase type-2 gamma (Homo sapiens) (Q8TBX8 whole entry): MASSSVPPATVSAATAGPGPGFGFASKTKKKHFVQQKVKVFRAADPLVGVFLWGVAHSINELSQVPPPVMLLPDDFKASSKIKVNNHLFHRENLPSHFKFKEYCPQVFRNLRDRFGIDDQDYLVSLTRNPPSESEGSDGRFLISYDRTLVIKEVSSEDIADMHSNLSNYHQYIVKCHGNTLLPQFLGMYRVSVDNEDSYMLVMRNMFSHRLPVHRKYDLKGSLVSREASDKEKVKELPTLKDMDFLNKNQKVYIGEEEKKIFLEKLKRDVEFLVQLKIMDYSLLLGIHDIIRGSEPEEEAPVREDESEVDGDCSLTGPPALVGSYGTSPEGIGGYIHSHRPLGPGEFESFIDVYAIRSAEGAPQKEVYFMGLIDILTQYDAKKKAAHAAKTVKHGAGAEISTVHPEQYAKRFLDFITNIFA
Sequence of Tyrosine-protein kinase ABL1 (Homo sapiens), P00519 [E255K] (P00519 whole entry E255K): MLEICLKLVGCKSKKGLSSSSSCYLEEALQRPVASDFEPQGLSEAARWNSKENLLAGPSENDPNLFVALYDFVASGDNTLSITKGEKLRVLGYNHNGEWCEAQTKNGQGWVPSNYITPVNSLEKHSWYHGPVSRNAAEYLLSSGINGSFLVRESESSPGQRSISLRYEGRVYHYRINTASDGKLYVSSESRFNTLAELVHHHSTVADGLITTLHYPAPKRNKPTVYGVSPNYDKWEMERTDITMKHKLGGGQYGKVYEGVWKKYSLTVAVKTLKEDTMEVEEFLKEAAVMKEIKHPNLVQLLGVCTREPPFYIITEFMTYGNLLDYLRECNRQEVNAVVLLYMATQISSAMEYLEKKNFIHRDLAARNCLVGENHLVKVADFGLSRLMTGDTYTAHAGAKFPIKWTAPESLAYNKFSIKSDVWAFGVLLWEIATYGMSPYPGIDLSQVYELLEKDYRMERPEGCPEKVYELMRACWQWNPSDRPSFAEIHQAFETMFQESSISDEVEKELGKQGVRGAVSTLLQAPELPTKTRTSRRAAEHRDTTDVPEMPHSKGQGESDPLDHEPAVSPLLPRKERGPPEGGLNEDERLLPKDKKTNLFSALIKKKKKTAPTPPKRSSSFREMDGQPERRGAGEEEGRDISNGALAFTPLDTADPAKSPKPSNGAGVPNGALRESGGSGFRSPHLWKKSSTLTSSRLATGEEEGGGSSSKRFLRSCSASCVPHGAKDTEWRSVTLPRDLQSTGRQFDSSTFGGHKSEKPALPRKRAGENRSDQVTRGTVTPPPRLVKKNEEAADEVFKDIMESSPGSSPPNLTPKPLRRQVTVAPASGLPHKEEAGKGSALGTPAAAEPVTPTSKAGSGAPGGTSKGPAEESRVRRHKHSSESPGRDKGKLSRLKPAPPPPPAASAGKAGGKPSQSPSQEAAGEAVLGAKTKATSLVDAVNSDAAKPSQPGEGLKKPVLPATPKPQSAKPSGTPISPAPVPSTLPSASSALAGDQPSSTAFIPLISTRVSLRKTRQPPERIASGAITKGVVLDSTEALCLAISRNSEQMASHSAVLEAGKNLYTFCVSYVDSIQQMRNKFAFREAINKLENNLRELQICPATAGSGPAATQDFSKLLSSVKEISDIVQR
Sequence of Cyclin-G-associated kinase (Homo sapiens) (O14976 whole entry): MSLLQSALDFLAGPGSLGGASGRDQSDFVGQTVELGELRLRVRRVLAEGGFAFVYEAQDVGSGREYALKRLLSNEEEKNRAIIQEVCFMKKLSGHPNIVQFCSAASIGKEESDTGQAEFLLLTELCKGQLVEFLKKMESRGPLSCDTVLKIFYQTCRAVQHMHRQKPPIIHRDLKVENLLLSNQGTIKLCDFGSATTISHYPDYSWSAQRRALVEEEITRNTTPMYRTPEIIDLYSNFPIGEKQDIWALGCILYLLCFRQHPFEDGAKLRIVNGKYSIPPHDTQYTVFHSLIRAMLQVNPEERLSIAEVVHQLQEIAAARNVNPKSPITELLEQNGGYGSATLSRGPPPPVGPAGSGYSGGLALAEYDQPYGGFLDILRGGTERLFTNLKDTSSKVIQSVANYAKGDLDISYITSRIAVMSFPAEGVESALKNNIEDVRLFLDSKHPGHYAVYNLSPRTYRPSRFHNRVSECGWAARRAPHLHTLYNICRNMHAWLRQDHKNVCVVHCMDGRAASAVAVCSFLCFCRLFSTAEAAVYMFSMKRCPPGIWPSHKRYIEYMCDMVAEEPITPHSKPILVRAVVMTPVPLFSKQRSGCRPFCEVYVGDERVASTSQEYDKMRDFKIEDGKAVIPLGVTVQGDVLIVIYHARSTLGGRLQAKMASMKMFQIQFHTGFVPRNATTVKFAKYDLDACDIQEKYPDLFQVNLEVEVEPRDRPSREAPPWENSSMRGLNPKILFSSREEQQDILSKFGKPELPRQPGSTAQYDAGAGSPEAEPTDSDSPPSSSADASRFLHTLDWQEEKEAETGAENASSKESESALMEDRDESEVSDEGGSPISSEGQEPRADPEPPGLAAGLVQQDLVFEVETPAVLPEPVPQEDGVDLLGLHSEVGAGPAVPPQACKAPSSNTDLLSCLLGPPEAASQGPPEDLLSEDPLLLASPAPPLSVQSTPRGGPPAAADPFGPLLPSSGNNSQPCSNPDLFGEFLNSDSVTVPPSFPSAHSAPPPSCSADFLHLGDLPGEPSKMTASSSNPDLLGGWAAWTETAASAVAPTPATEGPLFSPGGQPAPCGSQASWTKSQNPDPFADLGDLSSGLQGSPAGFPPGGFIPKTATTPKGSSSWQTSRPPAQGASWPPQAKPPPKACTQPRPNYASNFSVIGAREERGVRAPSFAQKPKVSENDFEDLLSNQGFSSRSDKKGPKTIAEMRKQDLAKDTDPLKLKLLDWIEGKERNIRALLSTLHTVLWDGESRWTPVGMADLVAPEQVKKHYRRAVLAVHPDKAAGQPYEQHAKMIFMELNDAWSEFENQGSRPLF
Sequence of MAP/microtubule affinity-regulating kinase 4 (Homo sapiens) (Q96L34 whole entry): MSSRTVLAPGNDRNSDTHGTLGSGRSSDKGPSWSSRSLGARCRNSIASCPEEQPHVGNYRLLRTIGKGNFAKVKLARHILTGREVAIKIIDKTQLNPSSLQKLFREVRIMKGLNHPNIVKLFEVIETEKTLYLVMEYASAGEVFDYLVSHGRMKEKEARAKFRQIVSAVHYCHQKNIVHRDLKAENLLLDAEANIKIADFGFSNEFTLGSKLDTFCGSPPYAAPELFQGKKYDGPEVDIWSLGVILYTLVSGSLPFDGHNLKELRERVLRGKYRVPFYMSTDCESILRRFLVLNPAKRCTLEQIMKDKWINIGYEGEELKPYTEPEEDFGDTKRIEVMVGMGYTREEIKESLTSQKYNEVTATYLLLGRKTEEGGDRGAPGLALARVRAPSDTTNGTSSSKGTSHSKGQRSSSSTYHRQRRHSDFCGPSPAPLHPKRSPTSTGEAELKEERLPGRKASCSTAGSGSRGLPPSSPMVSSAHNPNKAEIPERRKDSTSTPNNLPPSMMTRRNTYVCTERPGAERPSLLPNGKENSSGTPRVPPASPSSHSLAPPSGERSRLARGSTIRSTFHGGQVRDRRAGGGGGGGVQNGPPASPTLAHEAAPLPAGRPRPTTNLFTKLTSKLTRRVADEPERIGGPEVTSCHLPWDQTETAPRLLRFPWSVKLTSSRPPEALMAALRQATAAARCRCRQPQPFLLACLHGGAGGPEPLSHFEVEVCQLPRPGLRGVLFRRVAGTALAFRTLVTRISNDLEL
Sequence of Neprilysin (Homo sapiens) (P08473 whole entry): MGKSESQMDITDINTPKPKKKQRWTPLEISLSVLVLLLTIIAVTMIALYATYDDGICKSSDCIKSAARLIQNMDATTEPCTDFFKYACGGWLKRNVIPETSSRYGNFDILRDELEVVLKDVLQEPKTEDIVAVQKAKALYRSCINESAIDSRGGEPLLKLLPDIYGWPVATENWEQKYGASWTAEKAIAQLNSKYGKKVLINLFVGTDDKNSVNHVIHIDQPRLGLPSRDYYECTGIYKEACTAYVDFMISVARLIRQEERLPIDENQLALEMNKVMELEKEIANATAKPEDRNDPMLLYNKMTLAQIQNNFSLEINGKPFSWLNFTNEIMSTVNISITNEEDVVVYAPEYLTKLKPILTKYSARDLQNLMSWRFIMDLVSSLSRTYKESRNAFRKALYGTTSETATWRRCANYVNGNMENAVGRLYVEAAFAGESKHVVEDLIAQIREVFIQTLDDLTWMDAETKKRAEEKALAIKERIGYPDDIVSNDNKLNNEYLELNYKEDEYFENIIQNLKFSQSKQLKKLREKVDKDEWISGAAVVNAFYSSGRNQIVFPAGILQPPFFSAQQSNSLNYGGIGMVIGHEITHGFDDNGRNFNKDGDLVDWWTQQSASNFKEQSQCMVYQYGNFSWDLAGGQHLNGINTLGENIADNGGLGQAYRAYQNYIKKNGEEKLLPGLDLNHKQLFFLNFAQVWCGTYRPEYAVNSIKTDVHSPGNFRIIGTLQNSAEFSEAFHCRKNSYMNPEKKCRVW

Which results are given for `CCOCCn1cc(C(=O)Nc2ccc(-n3nc(-c4cccnc4)cc3C(F)(F)F)cn2)ccc1=O` [BI 1935]?
residual activity [1]: 100%; residual activity [2]: 102%; residual activity [3]: 100%; residual activity [4]: 86%; residual activity [5]: 100%; residual activity (Renin (Homo sapiens)): 94%; residual activity [6]: 100%; residual activity [7]: 100%; residual activity [8]: 100%; residual activity [9]: 92%; residual activity [10]: 104%; residual activity [11]: 96%; residual activity [12]: 95%; residual activity [13]: 87%; residual activity [14]: 76%; residual activity [15]: 100%; residual activity [16]: 70%; residual activity [17]: 73%; residual activity [18]: 100%; residual activity [19]: 100%; Ki ([20]; read-out: Ki): 4.48 µM; Ki ([20]; read-out: pKi (converted)): 5.01 µM; residual activity [21]: 100%; residual activity [22]: 89%; residual activity [23]: 98%; residual activity [24]: 100%; residual activity [25]: 94%; residual activity [26]: 100%; inhibition [27]: -5.62%; residual activity ([28]; Compound concentration 0.3 uM): 99%; residual activity ([28]; Compound concentration 1.0 uM): 88%; residual activity ([28]; Compound concentration 3.0 uM): 74%; residual activity ([28]; Compound concentration 10.0 uM): 27.5%; residual activity ([28]; Compound concentration 30.0 uM): 2%; residual activity [29]: 69%; residual activity [30]: 77%; residual activity [31]: 112%; residual activity [32]: 73%; residual activity [33]: 106%; residual activity [34]: 100%
